Earlier results on 1 compound are cited in article PMC11129975, “A first-in-human phase I study of TAS-117, an allosteric AKT inhibitor, in patients with advanced solid tumors” (Cancer Chemotherapy and Pharmacology, 2024).

Structures are written as SMILES.

Details of the data set: method as in data on file, Taiho Pharmaceutical Co., Ltd. Particulars: repeated dosing; ref data on file, Taiho Pharmaceutical Co., Ltd.; cited from earlier work.

For the compound `C[C@]1(O)C[C@@](N)(c2ccc(-c3nc4n(c3-c3ccccc3)COc3ccncc3-4)cc2)C1` [TAS-117], the Toxicity findings result was “dysregulation of carbohydrate metabolism and atrophic changes in the lymphatic/hematopoietic organs and adipocytes”.
